Reference: paper PMC7142304, “Oxadiazole-Containing Macrocyclic Peptides Potentiate Azole Activity against Pathogenic Candida Species” (mSphere, 2020)
≈ marks a conversion by molar mass, not a printed value.

Assays:
[1] = system: C. glabrata, C. auris, C. tropicalis, and C. parapsilosis; assay: Fluconazole MIC against azole-resistant non-albicans Candida panel; type: cell-based, Candida species; conditions: in the absence of macrocyclic peptides; range over the four strains; YPD, 30°C
Protocol: (D) Fluconazole dose-response assays for diverse Candida species were conducted in YPD medium without (−) or with the indicated macrocycle (62.5 μM). Growth was measured by absorbance at 600 nm after 24 h (C. parapsilosis [CpLC573], C. auris [Ci 6684, CauLC5083], and C. glabrata [BG2, CgLC1002]) or after 48 h (C. tropicalis [CtLC573]) at 30°C. Optical densities were averaged for duplicate measurements and normalized relative to the no-drug control well for each strain.
To evaluate the activity of the oxadiazole-containing macrocyclic peptides against other fungal pathogens, we tested a panel of azole-resistant non-albicans Candida species, including C. glabrata, C. auris, C. tropicalis, and C. parapsilosis. Dose-response assays were conducted using standard protocols ([14]) with a 2-fold dilution series of fluconazole, without or with JRF1197-2, JRF1198-2, or JRF1199-2 at 62.5 μM, a concentration that enhanced azole activity against C. albicans (Fig. 1).

[2] = system: ABC transporters Cdr1 and Cdr2; assay: Rhodamine-6G intracellular accumulation (efflux inhibition); type: cell-based; conditions: 30°C
Protocol: (A) The effect of JRF1199-1 and JRF1199-2 on filamentation of C. albicans (SN95, CaLC239) was monitored after incubation in YPD medium at 30°C or 39°C for 4 h with shaking. Images were taken by differential interference contrast microscopy. Representative fields from micrographs obtained at the same magnification for all images are presented. (B) C. albicans (Caf2-1, CaLC2742) was grown in YPD medium at 30°C for 3 h with or without 125 μM macrocycle or 10 μg/ml of beauvericin. A concentration of 1 μg/ml of rhodamine-6G was added to the cultures for another 30 min at 30°C. Cells were washed twice with phosphate-buffered saline (PBS), followed by fluorescence microscopy to monitor rhodamine-6G accumulation in cells. (C) The fluorescence of untreated cells or of cells treated with beauvericin or JRF1198-2 was quantitated by flow cytometry. Assays were performed using 250 μl of culture per well, and fluorescence was measured using the FL2 (phycoerythrin) channel in a CytoFLEX flow cytometer (Beckman Coulter Inc.) with at least 20,000 events acquired per sample. Events were gated to capture at least 90% of the entire population analyzed, discarding clumps/cellular debris. […] Growth was measured by absorbance at 600 nm after 24 h (C. parapsilosis [CpLC573], C. auris [Ci 6684, CauLC5083], and C. glabrata [BG2, CgLC1002]) or after 48 h (C. tropicalis [CtLC573]) at 30°C. […]

Compound	MIC [1] [µg/mL]	Mean Fluorescence (rhodamine-6G accumulation) ([2]; flow cytometry, FL2 channel, 3 h with 125 μM macrocycle or 10 μg/ml beauvericin, then 1 μg/ml rhodamine-6G for 30 min, at least 20,000 events)	Effect on rhodamine-6G accumulation ([2]; microscopy and flow cytometry, 125 μM macrocycle or 10 μg/ml beauvericin, YPD)
OC(Cn1cncn1)(Cn1cncn1)c1ccc(F)cc1F [fluconazole]	32 to 256 (≈ 104 to 836 µM)		
beauvericin		275895.3	enhanced rhodamine-6G accumulation
